The kinase profiling compilation of Christmann-Franck et al. (2016)

Legend:
Assay in all cases: radiometric filter-binding kinase assay, Kinase HotSpot
Details in all cases: compound 0.5 µM; ATP 10 µM
[1] = molecular target: WNK2 (human) (UniProt Q9Y3S1)
[2] = molecular target: MAP2K2 (human) (UniProt P36507)
[3] = molecular target: SRC (human) (UniProt P12931)
[4] = molecular target: CAMK1G (human) (UniProt Q96NX5)
[5] = molecular target: MAP3K10 (human) (UniProt Q02779)
[6] = molecular target: BRSK2 (human) (UniProt Q8IWQ3)
[7] = molecular target: CAMK2D (human) (UniProt Q13557)
[8] = molecular target: MAP4K5 (human) (UniProt Q9Y4K4)
[9] = molecular target: SRMS (human) (UniProt Q9H3Y6)
[10] = molecular target: CLK1 (human) (UniProt P49759)
[11] = molecular target: CDK6 CCND1 (human) (UniProt Q00534+P24385)
[12] = molecular target: EPHB4 (human) (UniProt P54760)
[13] = molecular target: NEK11 (human) (UniProt Q8NG66)
[14] = molecular target: SLK (human) (UniProt Q9H2G2)
[15] = molecular target: ABL1 (human) (UniProt P00519)
[16] = molecular target: MAP3K2 (human) (UniProt Q9Y2U5)
[17] = molecular target: PTK2B (human) (UniProt Q14289)
[18] = molecular target: PTK6 (human) (UniProt Q13882)
[19] = molecular target: DYRK1A (human) (UniProt Q13627)
[20] = molecular target: CAMK2G (human) (UniProt Q13555)
[21] = molecular target: GSK3A (human) (UniProt P49840)
[22] = molecular target: HIPK1 (human) (UniProt Q86Z02)
[23] = molecular target: CDK6 CCND3 (human) (UniProt P30281+Q00534)
[24] = molecular target: ACVRL1 (human) (UniProt P37023)
[25] = molecular target: NEK4 (human) (UniProt P51957)
[26] = molecular target: RPS6KA5 KD2 (human) (UniProt O75582)
[27] = molecular target: CSNK1A1 (human) (UniProt P48729)
[28] = molecular target: FYN (human) (UniProt P06241)
[29] = molecular target: TAOK2 (human) (UniProt Q9UL54)
[30] = molecular target: CDK9 CCNK (human) (UniProt O75909+P50750)
[31] = molecular target: CDK3 CCNE1 (human) (UniProt Q00526+P24864)
[32] = molecular target: RPS6KA4 KD2 (human) (UniProt O75676)
[33] = molecular target: PLK2 (human) (UniProt Q9NYY3)
[34] = molecular target: TSSK2 (human) (UniProt Q96PF2)
[35] = molecular target: MERTK (human) (UniProt Q12866)
[36] = molecular target: TEC (human) (UniProt P42680)
[37] = molecular target: FGFR2 (human) (UniProt P21802)
[38] = molecular target: CDK7 CCNH MNAT1 (human) (UniProt P50613+P51948+P51946)
[39] = molecular target: RPS6KA2 KD1 KD2 (human) (UniProt Q15349)
[40] = molecular target: EPHA4 (human) (UniProt P54764)
[41] = molecular target: CSF1R (human) (UniProt P07333)

Sequence of RPS6KA5 KD2 (human) (O75582 whole entry, looked up): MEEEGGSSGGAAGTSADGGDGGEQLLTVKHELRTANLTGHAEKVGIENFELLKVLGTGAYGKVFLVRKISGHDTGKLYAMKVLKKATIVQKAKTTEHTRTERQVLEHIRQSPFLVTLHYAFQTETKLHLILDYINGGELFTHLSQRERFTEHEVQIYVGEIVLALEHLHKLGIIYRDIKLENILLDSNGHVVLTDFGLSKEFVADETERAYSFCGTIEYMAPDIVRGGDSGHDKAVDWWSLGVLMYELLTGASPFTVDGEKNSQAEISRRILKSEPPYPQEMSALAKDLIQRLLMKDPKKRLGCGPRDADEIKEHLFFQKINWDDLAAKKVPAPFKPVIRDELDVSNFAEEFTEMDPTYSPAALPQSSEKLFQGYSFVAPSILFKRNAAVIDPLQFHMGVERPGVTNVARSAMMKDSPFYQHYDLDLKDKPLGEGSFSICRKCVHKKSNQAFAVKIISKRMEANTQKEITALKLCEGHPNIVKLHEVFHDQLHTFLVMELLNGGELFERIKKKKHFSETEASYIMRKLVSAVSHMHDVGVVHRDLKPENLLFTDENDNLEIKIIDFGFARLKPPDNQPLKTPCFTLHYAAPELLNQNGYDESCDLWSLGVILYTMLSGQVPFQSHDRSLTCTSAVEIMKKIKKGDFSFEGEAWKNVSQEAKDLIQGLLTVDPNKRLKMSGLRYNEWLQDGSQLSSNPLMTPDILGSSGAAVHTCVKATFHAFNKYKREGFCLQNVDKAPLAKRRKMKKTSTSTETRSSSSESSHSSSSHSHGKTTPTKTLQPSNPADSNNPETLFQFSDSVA
Sequence of NEK11 (human) (Q8NG66 whole entry, looked up): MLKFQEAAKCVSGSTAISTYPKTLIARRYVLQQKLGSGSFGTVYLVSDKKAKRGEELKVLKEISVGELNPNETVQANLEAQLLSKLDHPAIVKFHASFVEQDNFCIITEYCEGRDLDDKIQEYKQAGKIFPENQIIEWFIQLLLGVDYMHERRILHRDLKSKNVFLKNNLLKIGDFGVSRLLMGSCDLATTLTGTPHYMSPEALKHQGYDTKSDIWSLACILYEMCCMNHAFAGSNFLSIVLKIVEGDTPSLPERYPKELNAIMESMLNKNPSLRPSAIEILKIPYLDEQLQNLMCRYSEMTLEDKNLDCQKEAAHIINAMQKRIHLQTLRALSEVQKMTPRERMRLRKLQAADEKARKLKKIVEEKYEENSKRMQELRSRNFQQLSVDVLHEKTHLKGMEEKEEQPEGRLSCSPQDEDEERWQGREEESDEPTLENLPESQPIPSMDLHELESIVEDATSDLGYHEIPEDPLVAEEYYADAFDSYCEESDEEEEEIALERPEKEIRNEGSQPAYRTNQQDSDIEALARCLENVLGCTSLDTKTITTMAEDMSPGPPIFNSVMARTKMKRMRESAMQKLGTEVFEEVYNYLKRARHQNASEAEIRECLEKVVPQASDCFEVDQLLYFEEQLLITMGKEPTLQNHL
Sequence of GSK3A (human) (P49840 whole entry, looked up): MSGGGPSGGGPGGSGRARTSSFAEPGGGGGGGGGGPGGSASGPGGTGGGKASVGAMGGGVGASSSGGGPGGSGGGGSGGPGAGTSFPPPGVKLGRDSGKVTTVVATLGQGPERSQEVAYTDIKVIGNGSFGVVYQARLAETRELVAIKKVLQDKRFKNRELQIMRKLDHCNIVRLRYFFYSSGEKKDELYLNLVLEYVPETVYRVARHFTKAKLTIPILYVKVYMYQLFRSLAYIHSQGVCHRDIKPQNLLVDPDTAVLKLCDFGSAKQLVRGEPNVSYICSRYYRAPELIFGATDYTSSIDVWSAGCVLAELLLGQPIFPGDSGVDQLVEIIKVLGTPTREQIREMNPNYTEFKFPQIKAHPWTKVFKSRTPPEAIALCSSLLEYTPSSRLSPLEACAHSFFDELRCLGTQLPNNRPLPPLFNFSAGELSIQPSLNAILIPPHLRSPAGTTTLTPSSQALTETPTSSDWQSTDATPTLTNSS
Sequence of MAP3K10 (human) (Q02779 whole entry, looked up): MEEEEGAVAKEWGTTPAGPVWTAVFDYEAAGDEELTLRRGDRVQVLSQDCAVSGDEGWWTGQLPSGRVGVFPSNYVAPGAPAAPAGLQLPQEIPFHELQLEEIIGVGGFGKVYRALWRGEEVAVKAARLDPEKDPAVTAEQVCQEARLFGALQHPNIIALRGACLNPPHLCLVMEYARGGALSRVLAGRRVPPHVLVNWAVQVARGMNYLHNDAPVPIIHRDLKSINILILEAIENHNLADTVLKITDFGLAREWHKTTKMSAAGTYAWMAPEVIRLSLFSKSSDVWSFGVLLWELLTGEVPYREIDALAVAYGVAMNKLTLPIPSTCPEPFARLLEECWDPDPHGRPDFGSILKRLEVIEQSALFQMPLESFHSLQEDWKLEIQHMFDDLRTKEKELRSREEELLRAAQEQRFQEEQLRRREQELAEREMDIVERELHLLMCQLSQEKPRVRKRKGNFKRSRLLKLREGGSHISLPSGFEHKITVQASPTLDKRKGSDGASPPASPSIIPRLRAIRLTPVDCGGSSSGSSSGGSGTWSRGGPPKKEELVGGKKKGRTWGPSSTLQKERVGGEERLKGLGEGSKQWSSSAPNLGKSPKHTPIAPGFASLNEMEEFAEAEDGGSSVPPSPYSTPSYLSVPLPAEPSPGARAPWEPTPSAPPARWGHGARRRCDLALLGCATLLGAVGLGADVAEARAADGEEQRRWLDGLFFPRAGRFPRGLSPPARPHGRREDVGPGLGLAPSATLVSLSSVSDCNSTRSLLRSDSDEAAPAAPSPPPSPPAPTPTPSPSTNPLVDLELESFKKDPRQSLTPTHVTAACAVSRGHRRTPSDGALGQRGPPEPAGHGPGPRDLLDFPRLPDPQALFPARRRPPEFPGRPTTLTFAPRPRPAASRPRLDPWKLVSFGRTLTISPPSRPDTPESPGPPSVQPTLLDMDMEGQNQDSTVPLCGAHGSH
Sequence of ACVRL1 (human) (P37023 whole entry, looked up): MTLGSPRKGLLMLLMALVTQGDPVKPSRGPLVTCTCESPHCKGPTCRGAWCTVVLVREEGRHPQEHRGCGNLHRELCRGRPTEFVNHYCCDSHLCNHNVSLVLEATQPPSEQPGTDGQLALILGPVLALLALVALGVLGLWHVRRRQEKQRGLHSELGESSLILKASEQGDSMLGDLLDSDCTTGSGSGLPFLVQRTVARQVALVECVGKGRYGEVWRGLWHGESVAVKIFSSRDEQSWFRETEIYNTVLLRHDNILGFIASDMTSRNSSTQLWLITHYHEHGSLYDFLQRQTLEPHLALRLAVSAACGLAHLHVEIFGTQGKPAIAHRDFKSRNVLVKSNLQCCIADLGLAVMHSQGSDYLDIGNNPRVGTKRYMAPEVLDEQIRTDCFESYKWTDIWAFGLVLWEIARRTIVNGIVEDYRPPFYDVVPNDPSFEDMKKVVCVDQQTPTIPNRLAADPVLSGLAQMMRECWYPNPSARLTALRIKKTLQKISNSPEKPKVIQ
Sequence of SRC (human) (P12931 whole entry, looked up): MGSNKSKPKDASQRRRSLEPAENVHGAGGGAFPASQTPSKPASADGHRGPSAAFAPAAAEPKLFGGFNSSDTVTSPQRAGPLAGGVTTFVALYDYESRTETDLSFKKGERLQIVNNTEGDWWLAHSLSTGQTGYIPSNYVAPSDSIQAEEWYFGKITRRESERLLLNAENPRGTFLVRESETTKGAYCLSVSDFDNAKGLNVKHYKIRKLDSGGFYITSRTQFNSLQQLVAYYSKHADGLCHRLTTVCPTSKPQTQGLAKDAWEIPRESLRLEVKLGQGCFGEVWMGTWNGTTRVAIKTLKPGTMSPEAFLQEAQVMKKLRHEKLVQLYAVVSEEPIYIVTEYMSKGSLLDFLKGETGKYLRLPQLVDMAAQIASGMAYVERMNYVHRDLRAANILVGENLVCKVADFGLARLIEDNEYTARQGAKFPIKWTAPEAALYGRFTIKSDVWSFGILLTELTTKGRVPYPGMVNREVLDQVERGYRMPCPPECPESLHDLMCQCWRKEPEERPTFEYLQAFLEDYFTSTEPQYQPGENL
Sequence of EPHB4 (human) (P54760 whole entry, looked up): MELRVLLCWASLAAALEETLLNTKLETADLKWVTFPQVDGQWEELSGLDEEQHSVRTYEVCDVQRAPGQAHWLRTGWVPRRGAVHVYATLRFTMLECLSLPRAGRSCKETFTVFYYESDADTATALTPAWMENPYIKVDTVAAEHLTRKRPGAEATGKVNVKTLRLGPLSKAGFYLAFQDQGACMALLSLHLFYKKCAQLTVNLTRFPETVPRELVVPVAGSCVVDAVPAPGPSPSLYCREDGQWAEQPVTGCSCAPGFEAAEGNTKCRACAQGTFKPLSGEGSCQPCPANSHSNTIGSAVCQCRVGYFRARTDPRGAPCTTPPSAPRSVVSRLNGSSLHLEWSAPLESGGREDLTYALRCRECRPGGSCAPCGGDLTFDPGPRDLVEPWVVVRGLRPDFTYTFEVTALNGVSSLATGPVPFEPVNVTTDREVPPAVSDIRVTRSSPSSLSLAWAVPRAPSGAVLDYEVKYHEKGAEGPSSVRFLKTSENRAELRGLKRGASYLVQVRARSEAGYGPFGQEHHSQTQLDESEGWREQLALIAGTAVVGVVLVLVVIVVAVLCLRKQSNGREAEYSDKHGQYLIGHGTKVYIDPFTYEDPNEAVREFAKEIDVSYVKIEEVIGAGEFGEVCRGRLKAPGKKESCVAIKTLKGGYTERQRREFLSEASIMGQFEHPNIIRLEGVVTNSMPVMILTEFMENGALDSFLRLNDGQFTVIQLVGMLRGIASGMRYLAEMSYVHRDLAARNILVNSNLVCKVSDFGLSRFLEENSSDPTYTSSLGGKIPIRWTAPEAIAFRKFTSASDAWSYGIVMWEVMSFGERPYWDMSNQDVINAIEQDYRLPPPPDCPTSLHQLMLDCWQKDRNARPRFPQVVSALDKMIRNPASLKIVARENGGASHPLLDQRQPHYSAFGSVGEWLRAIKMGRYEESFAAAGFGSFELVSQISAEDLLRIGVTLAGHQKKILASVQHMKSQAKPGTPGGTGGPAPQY

**Q.** What does the source list for O=C1NC(=O)/C(=C/c2ccc3c(c2)OC(F)(F)O3)S1?
**A.** residual activity [1]: 113%; residual activity [2]: 110%; residual activity [3]: 98.4%; residual activity [4]: 107%; residual activity [5]: 91.2%; residual activity [6]: 90.9%; residual activity [7]: 97.1%; residual activity [8]: 88.1%; residual activity [9]: 103%; residual activity [10]: 102%; residual activity [11]: 95.4%; residual activity [12]: 100%; residual activity [13]: 111%; residual activity [14]: 98.3%; residual activity [15]: 98.5%; residual activity [16]: 94%; residual activity [17]: 110%; residual activity [18]: 94.8%; residual activity [19]: 84.6%; residual activity [20]: 102%; residual activity [21]: 88.1%; residual activity [22]: 95.9%; residual activity [23]: 92.6%; residual activity [24]: 97.1%; residual activity [25]: 97.8%; residual activity [26]: 91.1%; residual activity [27]: 88.4%; residual activity [28]: 96%; residual activity [29]: 96.9%; residual activity [30]: 93.5%; residual activity [31]: 99.4%; residual activity [32]: 108%; residual activity [33]: 99.7%; residual activity [34]: 101%; residual activity [35]: 94.5%; residual activity [36]: 108%; residual activity [37]: 97.6%; residual activity [38]: 98.3%; residual activity [39]: 97.3%; residual activity [40]: 95.9%; residual activity [41]: 106%

**Q.** Oc1cccc(-c2nc(N3CCOCC3)c3oc4ncccc4c3n2)c1 was tested. Which residual activity [1] did it give?
**A.** 119%

**Q.** And the residual activity [2]?
**A.** 85%

**Q.** What about the residual activity [3] of the same compound?
**A.** 97.2%

**Q.** And the residual activity [4]?
**A.** 99.2%

**Q.** And the residual activity [5]?
**A.** 92%

**Q.** And the residual activity [6]?
**A.** 97.1%

**Q.** And the residual activity [7]?
**A.** 96.2%

**Q.** What about the residual activity [8] of the same compound?
**A.** 82.4%

**Q.** And the residual activity [9]?
**A.** 96.2%

**Q.** What about the residual activity [10] of the same compound?
**A.** 85.2%

**Q.** And the residual activity [11]?
**A.** 95.6%

**Q.** What about the residual activity [12] of the same compound?
**A.** 104%

**Q.** What about the residual activity [13] of the same compound?
**A.** 109%

**Q.** What about the residual activity [14] of the same compound?
**A.** 101%

**Q.** And the residual activity [15]?
**A.** 94.4%

**Q.** And the residual activity [16]?
**A.** 103%

**Q.** What about the residual activity [17] of the same compound?
**A.** 103%

**Q.** What about the residual activity [18] of the same compound?
**A.** 80.8%

**Q.** What about the residual activity [19] of the same compound?
**A.** 94.3%

**Q.** What about the residual activity [20] of the same compound?
**A.** 100%

**Q.** And the residual activity [21]?
**A.** 90.2%

**Q.** And the residual activity [22]?
**A.** 101%

**Q.** And the residual activity [23]?
**A.** 89.7%

**Q.** And the residual activity [24]?
**A.** 105%

**Q.** And the residual activity [25]?
**A.** 90.4%

**Q.** And the residual activity [26]?
**A.** 86.5%

**Q.** What about the residual activity [27] of the same compound?
**A.** 87.9%

**Q.** And the residual activity [28]?
**A.** 91.7%

**Q.** And the residual activity [29]?
**A.** 92.2%

**Q.** What about the residual activity [30] of the same compound?
**A.** 96%

**Q.** And the residual activity [31]?
**A.** 93.9%

**Q.** And the residual activity [32]?
**A.** 104%

**Q.** What about the residual activity [33] of the same compound?
**A.** 94.7%

**Q.** And the residual activity [34]?
**A.** 102%

**Q.** What about the residual activity [35] of the same compound?
**A.** 87.8%

**Q.** What about the residual activity [36] of the same compound?
**A.** 113%

**Q.** What about the residual activity [37] of the same compound?
**A.** 95.7%

**Q.** And the residual activity [38]?
**A.** 99.9%

**Q.** What about the residual activity [39] of the same compound?
**A.** 88.1%

**Q.** And the residual activity [40]?
**A.** 96.4%

**Q.** What about the residual activity [41] of the same compound?
**A.** 108%

**Q.** Which results are given for c1ccc(-c2n[nH]cc2-c2ccnc3ccccc23)nc1?
**A.** residual activity [1]: 49.2%; residual activity [2]: 106%; residual activity [3]: 94.7%; residual activity [4]: 102%; residual activity [5]: 104%; residual activity [6]: 101%; residual activity [7]: 101%; residual activity [8]: 87.4%; residual activity [9]: 105%; residual activity [10]: 106%; residual activity [11]: 91.1%; residual activity [12]: 89.1%; residual activity [13]: 91.8%; residual activity [14]: 104%; residual activity [15]: 77.1%; residual activity [16]: 91.2%; residual activity [17]: 96.1%; residual activity [18]: 70.9%; residual activity [19]: 90.9%; residual activity [20]: 85.9%; residual activity [21]: 95.1%; residual activity [22]: 99.9%; residual activity [23]: 98.2%; residual activity [24]: 102%; residual activity [25]: 95.8%; residual activity [26]: 102%; residual activity [27]: 74.6%; residual activity [28]: 110%; residual activity [29]: 96.8%; residual activity [30]: 98.7%; residual activity [31]: 94.2%; residual activity [32]: 87.2%; residual activity [33]: 98.9%; residual activity [34]: 83.5%; residual activity [35]: 92.6%; residual activity [36]: 106%; residual activity [37]: 110%; residual activity [38]: 104%; residual activity [39]: 96.3%; residual activity [40]: 98%; residual activity [41]: 95.5%

**Q.** For CCN(CC)CCNC(=O)c1c(C)[nH]c(/C=C2\C(=O)Nc3ccc(Cl)cc32)c1C, which residual activity [1] is on record?
**A.** 101%

**Q.** What about the residual activity [2] of the same compound?
**A.** 41.4%

**Q.** What about the residual activity [3] of the same compound?
**A.** 26%

**Q.** And the residual activity [4]?
**A.** 49.5%

**Q.** What about the residual activity [5] of the same compound?
**A.** 82.8%

**Q.** And the residual activity [6]?
**A.** 53.7%

**Q.** What about the residual activity [7] of the same compound?
**A.** 7.25%

**Q.** What about the residual activity [8] of the same compound?
**A.** 0.833%

**Q.** And the residual activity [9]?
**A.** 102%

**Q.** What about the residual activity [10] of the same compound?
**A.** 34.2%

**Q.** And the residual activity [11]?
**A.** 27.8%

**Q.** And the residual activity [12]?
**A.** 76.9%

**Q.** And the residual activity [13]?
**A.** 83.4%

**Q.** What about the residual activity [14] of the same compound?
**A.** 38%

**Q.** And the residual activity [15]?
**A.** 24.7%

**Q.** What about the residual activity [16] of the same compound?
**A.** 20.1%

**Q.** What about the residual activity [17] of the same compound?
**A.** 30.5%

**Q.** And the residual activity [18]?
**A.** 51.3%

**Q.** What about the residual activity [19] of the same compound?
**A.** 47.2%

**Q.** What about the residual activity [20] of the same compound?
**A.** 8.13%

**Q.** And the residual activity [21]?
**A.** 88.3%

**Q.** And the residual activity [22]?
**A.** 96.9%

**Q.** And the residual activity [23]?
**A.** 41.6%

**Q.** What about the residual activity [24] of the same compound?
**A.** 89%

**Q.** And the residual activity [25]?
**A.** 97%

**Q.** What about the residual activity [26] of the same compound?
**A.** 59%

**Q.** And the residual activity [27]?
**A.** 75.7%

**Q.** And the residual activity [28]?
**A.** 28.4%

**Q.** And the residual activity [29]?
**A.** 72.6%

**Q.** And the residual activity [30]?
**A.** 40.1%

**Q.** What about the residual activity [31] of the same compound?
**A.** 88.3%

**Q.** And the residual activity [32]?
**A.** 59%

**Q.** What about the residual activity [33] of the same compound?
**A.** 91.2%

**Q.** What about the residual activity [34] of the same compound?
**A.** 66.9%

**Q.** And the residual activity [35]?
**A.** 11.5%

**Q.** What about the residual activity [36] of the same compound?
**A.** 102%

**Q.** And the residual activity [37]?
**A.** 29.3%

**Q.** What about the residual activity [38] of the same compound?
**A.** 72.8%

**Q.** What about the residual activity [39] of the same compound?
**A.** 10%

**Q.** And the residual activity [40]?
**A.** 88%

**Q.** What about the residual activity [41] of the same compound?
**A.** 7.41%
